The values that follow are results of earlier work, collected in patent US20230364254A1, “METHODS FOR TREATING CANCERS WITH ANTIBODY DRUG CONJUGATES (ADC) THAT BIND TO 191P4D12 PROTEINS” (priority 2020, published 2023).

Where two headings read alike, the source gives them in different places.

Series [1] concerns metastatic urothelial cancer. The conditions noted are these: cited from earlier work.
Series [2] has as its system acute myeloid leukemia (AML). The conditions noted are these: administered alone; cited from earlier work.
Setting [3] is: first line, patients ineligible for cisplatin, open-label single arm study.
Where [4] appears, read: second-line, post-platinum, phase 3 study in 542 patients.

For “atezolizumab: anti-programmed death-ligand 1 (PD-L1) immune checkpoint inhibitor”, in series [1] (setting [3]), the “median OS” value is on record as 15.9 months and the “objective response rate (ORR)” value is listed as 23%. Also, in series [1] (second-line), the “confirmatory phase 3 trial outcome” value is reported as “failed to meet its primary endpoint of OS”.
In the case of `CC(=O)O[C@@]12CO[C@@H]1C[C@H](O)[C@@]1(C)C(=O)[C@H](O)C3=C(C)[C@@H](OC(=O)[C@H](O)[C@@H](NC(=O)OC(C)(C)C)c4ccccc4)C[C@@](O)([C@@H](OC(=O)c4ccccc4)[C@H]21)C3(C)C` [docetaxel], the “ORR (n=2/19)” value in series [1] (after platinum and CPI therapy) was 10.5%.
“CT-011: anti-PD-1 antibody, a humanized antibody”: the “response in acute myeloid leukemia (AML) at relapse” value in series [2] was “failed to show response”.
For the compound “pembrolizumab: humanized monoclonal IgG4 anti-PD-1 antibody”, the ORR in series [1] (first line, patients ineligible for cisplatin, open label single arm study in 370 patients) is listed as 29%. Besides, the “difference in progression-free survival (PFS) between the two arms” value in series [1] (second-line, post-platinum, phase 3, vs taxane chemotherapy or vinflunine) is “No statistically significant difference”. Also, in series [1] (setting [4]), the ORR was 21% and the OS is 10.3 months.
As to `CC[C@]12C=CCN3CC[C@@]4(c5cc([C@@]6(C(=O)OC)C[C@@H]7C[C@@H](C(C)(F)F)CN(Cc8c6[nH]c6ccccc86)C7)c(OC)cc5N(C)[C@H]4[C@@](O)(C(=O)OC)[C@@H]1OC(C)=O)[C@@H]32` [vinflunine], the overall response rate in series [1] (second-line treatment of metastatic disease) is given as 9%. The hazard ratio in series [1] (second-line, vinflunine+BSC vs BSC alone) is on record as 0.88. In addition, the survival benefit in series [1] (second-line, vinflunine+best supportive care (BSC) vs BSC alone) is on record as 2 months. The survival in series [1] (second-line, vinflunine+best supportive care (BSC)) is on record as 6.9 months.
